Measurements from patent US20180078602A1, “METHODS AND COMPOSITIONS FOR EXTENDING THE EFFICACY OF PHOSPHODIESTERASE INHIBITORS FOR TREATING ERECTILE DYSFUNCTION, AND COMPOSITIONS FOR INHIBITING THE ONSET AND SLOWING THE PROGRESSION OF ERECTILE DYSFUNCTION” (K.L.R.M., LLC, priority 2015, published 2018).

Experiments:
[1] = tested on: rat corpora cavernosa smooth muscle/collagen; assay: Masson trichrome staining, smooth muscle/collagen ratio by quantitative image analysis; type: in vivo; details: daily oral treatment 2 months; compared to 12 month-old control animals
Procedure: (§1) Middle aged 10 month-old Fisher 344 rats (Harlan Sprague-Dawley, San Diego, Calif.) were divided in 4 groups and treated daily for two months as follows: • a) Control: 12 month-old at the time of death receiving by retrolingual administration vehicle only composed of 10% dimethyl sulfoxide, peanut butter and water (12 month); • b) Composition 4 (COMP 4): a combination of Muira Puama (45 mg/Kg B.W), Paullinia cupana (45 mg/Kg B.W), ginger (45 mg/Kg B.W) and […]) dissolved in vehicle; • c) Tadalafil (TAD): 2.5 mg/Kg B.W tadalafil dissolved in vehicle; • d) Composition 4+Tadalafil (COMP4+TAD): A combination of b and c at the same doses. Histochemistry and Immunohistochemistry. […] Quantitative Image Analysis was performed by computerized densitometry using ImagePro 7.1 software (Media Cybernetics, Silver Spring, Md.), coupled to an Olympus BHS microscope equipped with a Retiga digital camera. For Masson staining, 40× magnification pictures of the penis comprising half of the corpora cavernosa were analyzed for smooth muscle (stained in red) and collagen areas (stained in blue) excluding the sinusoidal spaces, and expressed as the smooth muscle/collagen ratio. For desmin and iNOS staining, 200× magnification pictures of the corpora cavernosa were analyzed in a computerized grid and expressed as a percentage of positive area versus total area of the corpora cavernosa. […]

desmin = assay: Desmin immunohistochemistry (smooth muscle cell content); type: in vivo, rat; details: treatment 2 months; with respect to 12 month-old non-treated controls
Procedure: as §1

SMILES: CN1CC(=O)N2[C@H](c3ccc4c(c3)OCO4)c3[nH]c4ccccc4c3C[C@@H]2C1=O [tadalafil]
- improvement of SMC/collagen ratio [1]: 60%
- increase in desmin expression (desmin): 38%
